Test results from patent US9353104B2, “Substituted pyridizinone derivatives as PDE10 inhibitors” (priority 2013, dated 2016).

Target: human PDE10A2 (Homo sapiens (Human), UniProt Q9Y233)
Experiment: PDE10 fluorescence polarization (IMAP FP) inhibition assay
Format: biochemical
Details: human PDE10A2 lysate, FAM-labeled cAMP 50 nM, room temperature; read-out: PDE10A Ki
Procedure: The activity of the compounds in accordance with the present invention as PDE10 inhibitors may be readily determined without undue experimentation using a fluorescence polarization (FP) methodology that is well known in the art (Huang, W., et al., J. Biomol Screen, 2002, 7: 215). […] In a typical experiment the PDE10 inhibitory activity of the compounds of the present invention was determined in accordance with the following experimental method. PDE10A2 was amplified from human fetal brain cDNA (Clontech, Mountain View, Calif.) using a forward primer corresponding to nucleotides 56-77 of human PDE10A2 (Accession No. AF127480, Genbank Identifier 4894716), containing a Kozak consensus sequence, and a reverse primer corresponding to nucleotides 2406-2413 of human PDE10A2 (Accession No. AF127480, Genbank Identifier 4894716). Amplification with Easy-A polymerase (Stratagene, La Jolla, Calif.) was 95° C. for 2 minutes followed by thirty three cycles of 95° C. for 40 seconds, 55° C. for 30 seconds, and 72° C. for 2 minutes 48 seconds. Final extension was 72° C. for 7 minutes. The PCR product was TA cloned into pcDNA3.2-TOPO (Invitrogen, Carlsbad, Calif.) according to standard protocol. AD293 cells with 70-80% confluency were transiently transfected with human PDE10A2/pcDNA3.2-TOPO using Lipofectamine 2000 according to manufacturer specifications (Invitrogen, Carlsbad, Calif.). Cells were harvested 48 hours post-transfection and lysed by sonication (setting 3, 10×5 sec pulses) in a buffer containing 20 mM HEPES, 1 mM EDTA and protease inhibitor cocktail (Roche). Lysate was collected by centrifugation at 75,000×g for 20 minutes. Supernatant containing the cytoplasmic fraction was used for evaluation of PDE10A2 activity. The fluorescence polarization assay for cyclic nucleotide phosphodiesterases was performed using an IMAP® FP kit supplied by Molecular Devices, Sunnyvale, Calif. (product #R8139). IMAP® technology has been applied previously to phosphodiesterase assays (Huang, W., et al., J. Biomol Screen, 2002, 7: 215). Assays were performed at room temperature in 384-well microtiter plates with an incubation volume of 20.2 μL. Solutions of test compounds were prepared in DMSO and serially diluted with DMSO to yield 8 μL of each of 10 solutions differing by 3-fold in concentration, at 32 serial dilutions per plate. 100% inhibition is determined using a known PDE10 inhibitor, which can be any compound that is present at 5,000 times its Ki value in the assay described as follows, such as papaverine (see Siuciak, et al. Neuropharmacology (2006) 51:386-396; Becker, et al. Behav Brain Res (2008) 186(2):155-60; Threlfell, et al., J Pharmacol Exp Ther (2009) 328(3):785-795), 2-{4-[pyridin-4-yl-1-(2,2,2-trifluoroethyl)-1H-pyrazol-3-yl]phenoxymethyl}quinoline succinic acid or 2-[4-(1-methyl-4-pyridin-4-yl-1H-pyrazol-3-yl)-phenoxymethyl]quinoline succinic acid (see Schmidt, et al. J Pharmacol Exp Ther (2008) 325:681-690; Threlfell, et al., J Pharmacol Exp Ther (2009) 328(3): 785-795). 0% of inhibition is determined by using DMSO (1% final concentrations).
A Labcyte Echo 555 (Labcyte, Sunnyvale, Calif.) is used to dispense 200 nL from each well of the titration plate to the 384 well assay plate. A solution of enzyme (1/1600 dilution from aliquots; sufficient to produce 20% substrate conversion) and a separate solution of FAM-labeled cAMP PDE from Molecular Devices (product #R7506), at a final concentration of 50 nM are made in the assay buffer (10 mM Tris HCl, pH 7.2, 10 mM MgCl2, 0.05% NaN3 0.01% Tween-20, and 1 mM DTT). The enzyme and the substrate are then added to the assay plates in two consecutive additions of 10 μL, and then shaken to mix. The reaction is allowed to proceed at room temperature for 30 minutes. A binding solution is then made from the kit components, comprised of 80% Solution A, 20% Solution B and binding reagent at a volume of 1/600 the total binding solution.

Chain of human PDE10A2 (Q9Y233 267-1055): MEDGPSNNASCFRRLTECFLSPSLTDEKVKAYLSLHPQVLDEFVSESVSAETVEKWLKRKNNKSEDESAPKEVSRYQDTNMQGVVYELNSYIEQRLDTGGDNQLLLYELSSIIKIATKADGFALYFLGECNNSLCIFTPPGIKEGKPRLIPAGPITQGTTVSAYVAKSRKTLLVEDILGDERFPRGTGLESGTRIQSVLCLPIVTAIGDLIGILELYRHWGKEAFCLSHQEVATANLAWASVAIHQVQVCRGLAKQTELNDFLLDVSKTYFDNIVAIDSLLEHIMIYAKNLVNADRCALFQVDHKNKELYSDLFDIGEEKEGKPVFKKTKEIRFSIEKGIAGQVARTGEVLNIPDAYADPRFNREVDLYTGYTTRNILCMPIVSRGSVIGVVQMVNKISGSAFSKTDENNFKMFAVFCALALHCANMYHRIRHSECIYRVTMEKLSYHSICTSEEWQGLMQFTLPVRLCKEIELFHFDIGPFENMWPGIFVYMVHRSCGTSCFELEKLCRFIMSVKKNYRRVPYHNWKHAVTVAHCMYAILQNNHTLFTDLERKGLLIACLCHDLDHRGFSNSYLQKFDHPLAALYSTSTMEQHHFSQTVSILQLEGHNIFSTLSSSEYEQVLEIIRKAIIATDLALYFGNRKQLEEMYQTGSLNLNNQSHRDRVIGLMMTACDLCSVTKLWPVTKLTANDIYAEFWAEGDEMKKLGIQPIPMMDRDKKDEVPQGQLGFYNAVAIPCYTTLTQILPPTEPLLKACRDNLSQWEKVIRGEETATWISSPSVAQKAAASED

Compound	Ki
Cc1ccc(CNc2cc(OC[C@H]3C[C@@H]3c3ccc(F)cn3)nn(C)c2=O)nc1 [Example 16, 6-(((1S,2S)-2-(5-fluoropyridin-2-yl)cyclopropyl)methoxy)-2-methyl-4-((5-methylpyridin-2-yl)methylamino)pyridazin-3(2H)-one]	0.782 nM
Cc1ccc([C@H]2C[C@@H]2COc2cc(NCc3c(C)nn(C)c3Cl)c(=O)n(C)n2)nc1 [Example 38, 4-((5-chloro-1,3-dimethyl-1H-pyrazol-4-yl)methyl-amino)-2-methyl-6-(((1S,- 2S)-2-(5-methyl-pyridin-2-yl)cyclopropyl)methoxy)-pyridazin-3(2H)-one]	1.53 nM
Cc1cc(CNc2cc(OC[C@H]3C[C@@H]3c3ccc4c(n3)CCC4)nn(C)c2=O)n(C)n1 [Example 121, 6-(((1S,2S)-2-(6,7-dihydro-5H-cyclopenta-[b]pyridin-2-yl)cyclop-ropyl)methoxy)-4-((1,3-dimethyl-1H-pyrazol-5-yl)methylamino)-2-methylpyridazin-3(2H)one]	0.001 nM
COc1ccc([C@H]2C[C@@H]2COc2cc(NCc3ccc(Cl)c(C)n3)c(=O)n(C)n2)nc1 [Example 75, 4-(((5-chloro-6-methyl-pyridin-2-yl)methyl)-amino)-6-(((1S,2S)-2-(5-methoxypyridin-2-yl)cyclopropyl)methoxy)2-methylpyridazin-3(2H)one]	1.3 nM
Cc1cccc([C@H]2C[C@@H]2COc2cc(NCc3nnc(C)s3)c(=O)n(C)n2)n1 [Example 115, 2-methyl-4-((5-methyl-1,3,4-thiadiazol-2-yl)methylamino)-6-(((1S,2S)-2-(6-methylpyridin-2-yl)cyclopropyl)methoxy) pyridazin-3(2H)-one]	0.033 nM
Cc1ncc(CNc2cc(OC[C@@H]3C[C@H]3c3nn(C)c4ccccc34)nn(C)c2=O)s1 [Example 110, 2-methyl-6-(((1R,2R)-2-(1-methyl-1H-indazol-3-yl)cyclopropyl)methoxy)-4-((2-methylthiazol-5-yl)methylamino)pyridazin-3(2H)-one]	0.077 nM
Cc1ccc(CNc2cc(OC[C@H]3C[C@@H]3c3ccn(C)n3)nn(C)c2=O)c(C)n1 [Example 51, 4-(((2,6-dimethylpyridin-3-yl)methyl)amino)-2-methyl-6-(((1S,2S)-2-(1-methyl-1H-pyrazol-3-yl)cyclopropyl)methoxy)-pyridazin-3(2H)-one]	0.023 nM
COc1ccc(CNc2cc(OC[C@H]3C[C@@H]3c3ccc(OC)cn3)nn(C)c2=O)cc1 [Example 133, 4-(4-methoxybenzyl-amino)-6-(((1S,2S)-2-(5-methoxypyridin-2-yl)-cyclopropyl)methoxy)-2-methylpyridazin-3(2H)one]	0.021 nM
Cn1cc(CNc2cc(OC[C@H]3C[C@@H]3c3ccc(Cl)cn3)nn(C)c2=O)cn1 [Example 27, 6-(((1S,2S)-2-(5-chloro-pyridin-2-yl)cyclopropyl)-methoxy)-2-methyl-4-((1-methyl-1H-pyrazol-4-yl)methylamino)pyridazin-3(2H)-one]	0.34 nM
Cn1cc(CNc2cc(OC[C@H]3C[C@@H]3c3ccc4c(n3)CCC4)nn(C)c2=O)cn1 [Example 125, 6-(((1S,2S)-2-(6,7-dihydro-5H-cyclopenta[b]pyridin-2-1)cyclopropyl)methoxy)-2-methyl-4-((1-methyl-1H-pyrazol-4-yl)methylamino-)pyridazin-3(2H)-one]	0.005 nM
COc1ccc([C@H]2C[C@@H]2COc2cc(NCc3cnccn3)c(=O)n(C)n2)nc1 [Example 66, 6-(((1S,2S)-2-(5-methoxypyridin-2-yl)cyclopropyl)methoxy)-2-methyl-4-((pyrazin-2-ylmethyl)amino)pyridazin-3(2H)-one]	5.7 nM
Cc1ccc(CNc2cc(OC[C@H]3C[C@@H]3c3ccc4ccccc4n3)nn(C)c2=O)c(C)n1 [Example 57, 4-(((2,6-dimethylpyridin-3-yl)methyl)amino)-2-methyl-6-(((1S,2S)-2-(quinolin-2-yl)cyclopropyl)methoxy)-pyridazin-3(2H)-one]	0.004 nM
COc1ccc([C@H]2C[C@@H]2COc2cc(NCc3ncc(C)s3)c(=O)n(C)n2)nc1 [Example 130, 6-(((1S,2S)-2-(5-methoxy-pyridin-2-yl)cyclopropyl-)methoxy)-2-methyl-4-((5-methyl-thiazol-2-yl)-methylamino-)pyridazin-3(2H)-one]	0.004 nM
COc1ccc([C@H]2C[C@@H]2COc2cc(NCc3cccc(C)n3)c(=O)n(C)n2)nc1 [Example 97, 6-(((1S,2S)-2-(5-methoxypyridin-2-yl)-cyclopropyl)methoxy)-2-methyl-4-(((6-methyl-pyridin-2-yl)methyl)-amino)pyridazin-3(2H)one]	2.7 nM
Cn1cc(CNc2cc(OC[C@H]3C[C@@H]3c3nn(C)c4ccccc34)nn(C)c2=O)cn1 [Example 111, 2-methyl-6-(((1S,2S)-2-(1-methyl-1H-indazol-3-yl)cyclopropyl)methoxy)-4-((1-methyl-1H-pyrazol-4-yl)methylamino)-pyridazin-3(2H)-one]	1.9 nM
COc1ccc(Cn2cc(CNc3cc(OC[C@H]4C[C@@H]4c4ccc(OC)cn4)nn(C)c3=O)c(C)n2)cc1 [Example 77, 4-((1-(4-methoxybenzyl)-3-methyl-1H-pyrazol-4-yl)methylamino)-6-(((1S,2S)-2-(5-methoxy-pyridin-2-yl)cyclopropyl)-methoxy)-2-methyl-pyridazin-3(2H)-one]	5.7 nM
Cc1ccc([C@H]2C[C@@H]2COc2cc(NCc3nnc(C)s3)c(=O)n(C)n2)nc1 [Example 1, 2-methyl-4-((5-methyl-1,3,4-thiadiazol-2-yl)methylamino)-6-(((1S,2S)-2-(5-methylpyridin-2-yl)cyclopropyl)methoxy)pyridazin-3(2H)-one]	0.013 nM
COc1ccc(Cn2nc(OC[C@H]3C[C@@H]3c3ccc(OC)cn3)cc(NCc3nnc(C)s3)c2=O)cc1 [Example 142, 2-(4-methoxybenzyl)-6-(((1S,2S)-2-(5-methoxy-pyridin-2-yl)cyclopropyl-)methoxy)-4-((5-methyl-1,3,4-thiadiazol-2-yl)methyl-amino)pyridazin-3(2H)-one]	75 nM
COc1ccc([C@H]2C[C@@H]2COc2cc(NCc3ccc(F)c(C)n3)c(=O)n(C)n2)nc1 [Example 74, 4-(((5-fluoro-6-methyl-pyridin2yl)methyl)amino)-6-(((1S,2S)-2-(5-methoxy-pyridin-2-yl)cyclopropyl-)-methoxy)-2-methyl-pyridazin-3(2H)-one]	5.3 nM
Cc1ccc(CNc2cc(OC[C@H]3C[C@@H]3c3ccn(C)n3)nn(C)c2=O)cn1 [Example 20, 2-methyl-6-(((1S,2S)-2-(1-methyl-1H-pyrazol-3-yl)cyclopropyl)methoxy)-4-((6-methylpyridin-3-yl)methylamino)pyridazin-3(2H)-one]	0.806 nM
Cc1cccc([C@H]2C[C@@H]2COc2cc(NCc3ncc(C)s3)c(=O)n(C)n2)n1 [Example 118, 2-methyl-6-(((1S,2S)-2-(6-methylpyridin-2-yl)cyclo-propyl)methoxy)-4-((5-methylthiazol-2-yl)methyl-amino)pyridazin-3(2H)one]	0.037 nM
Cc1ccc([C@H]2C[C@@H]2COc2cc(NC(=O)c3cc(C)nn3C)c(=O)n(C)n2)nc1 [Example 102, 1,3-dimethyl-N-(2-methyl-6-(((1S,2S)-2-(5-methyl-pyridin-2-yl)cyclopropyl-)methoxy)-3-oxo-2,3-dihydropyridazin-4-yl)-1H-pyrazole-5-carboxamide]	51.2 nM
